Legend:
SARS-CoV-2 (WA-1 strain) = assay: SARS-CoV-2 WT infection of Vero6 cells (CellTiter-Glo); format: cell-based; conditions: MOI 0.01, 3 days, mean of two independent experiments; for IC50: Severe acute respiratory syndrome coronavirus 2, 72 h, relative IC50, WT virus; for Max Inhibition (%): WT virus
COVID-19 patients = assay: Retrospective electronic health record analysis of mortality (Cerner Real World Data COVID-19), propensity score matched; format: in vivo, human; conditions: for Mortality, N (%): cohort before propensity score matching, moderate-intensity statin dose; for Mortality rate, treated patients / No. died/No. treated, treated patients: statin at moderate dose, COVID-19 patients; for reduction in the RR: treated vs matched untreated controls
Experimental: Data from the Cerner Real World Data COVID-19 deidentified EHR database containing records of 490,373 patients with a diagnosis of COVID-19 or COVID-19 exposure across 87 health care centers were analyzed. The following statins were included: atorvastatin, fluvastatin, lovastatin, pitavastatin, pravastatin, rosuvastatin, and simvastatin. Primary outcome was death after the onset of COVID-19. Inclusion criteria, considered comorbidities, and statistical analysis are detailed in the Methods in S1 Text.
Encounters include laboratory and pharmacy information (e.g., medication orders, dispensing), which are date and time stamped. Only patients with COVID-19 diagnosis confirmed by a laboratory test for SARS-CoV-2 (nucleic acid amplification tests and immunoassays) and/or by International Statistical Classification of Diseases and Related Health Problems, Tenth Revision (ICD-10) code U07.1 (for COVID-19 confirmed by laboratory testing),^1 with known demographic characteristics (age, sex, and race and ethnicity), and who were 18 years or older from January to September 2020 were included in our study (n = 90,834). Patients with COVID-19, with a statin medication dose consistent with moderate-intensity therapy,^2 and with a medication order status of active or completed and without a designation of as needed (ie, medication taken only when needed) at least once within a period of 10 days before and 7 days after their first recorded COVID-19 diagnosis were compared with patients with COVID-19 and no statin orders.
Considered comorbidities, identified by using International Classification of Diseases, Ninth Revision, Clinical Modification (ICD-9-CM), and International Statistical Classification of Diseases, Tenth Revision, Clinical Modification (ICD-10-CM), diagnosis codes, included hypertension (I10-I16 and 401.X-405.X), diabetes (O24, E11, E10, E13, and 250.X), chronic obstructive pulmonary disease (J44, 491.2, 493.2, and 496.X), obesity (E66.0, E66.1, E66.2, E66.8, E66.9, 278.00, 278.01, 278.03, Z68.3, Z68.4, V85.3, and V85.4), heart conditions (I20.X, I21.X, I22.X, I23.X, I24.X, I25.X, I42.X, I50.X, 410.X, 411.X, 412.X, 413.X, 414.X, 428.X, and 425.X), cerebrovascular disease (I6X.X, G45.X, G46.X, and 43X.X), cancer (C00-C96, 14X.X, 15X.X, 16X.X, 17X.X, 18X.X, 19X.X, and 20X.X), and chronic kidney disease (N18.X and 585.X). Prescription indications, identified by using ICD-9-CM and ICD-10-CM codes, included high cholesterol/hyperlipidemia (E78.0, E78.1, E78.2, E78.3, E78.4, E78.5, 272, 277). Body mass index (calculated as weight in kilograms divided by height in meters squared) values were identified by Logical Observation Identifiers Names and Codes 39156-5 and 89270-3. Body mass index values of at least 30 were used to confirm the diagnosis of obesity by ICD-9-CM or ICD-10-CM code. The mean dose prescribed for statins-treated patients was calculated for each statin. […] For patients receiving pravastatin, the mean (SD) dose was 48.25 (16.21) mg/d.
The R Matchit package, version 3.0.2 (R Program for Statistical Computing) was used to perform propensity score matching with a nearest-neighbor method to match patients treated with a statin with control patients (1:1 ratio), atorvastatin-treated patients with control patients (1:1 ratio), lovastatin-treated patients with control patients (1:10 ratio), pravastatin-treated patients with control patients (1:10 ratio), rosuvastatin-treated patients with control patients (1:10 ratio), and simvastatin-treated patients with control patients (1:5 ratio), with varying ratios for the different statins to have sufficient power for the comparisons and increase precision. […]

[1] = cited from earlier work
Vero E6 (Vero6) cells = conditions: uninfected Vero6 cells; mean of two independent experiments
SARS-CoV-2 GFP = assay: microbe, parasite or virus in culture; format: cell-based; conditions: for Max Inhibition (%) / IC50: mean of two independent experiments; for IC50: Severe acute respiratory syndrome coronavirus 2, 48 h, relative IC50
[2] = cited from earlier work; remark: listed apart in the source
[3] = cited from earlier work; remark: listed apart in the source
in vitro = conditions: African green monkey
SARS-CoV-2 [4] = tested on: SARS-CoV-2; parameters: method as in earlier work; conditions: VeroE6 cells; cited from earlier work
IP-10 = IP-10 production in OC43-infected HUVECs; format: cell-based, human; conditions: 1 or 5 μM
Experimental: (§1) To measure the impact of selected drugs on HCoV-OC43 infection, 96-well plates seeded with human umbilical vein endothelial cells (HUVECs) were infected with HCoV-OC43 and treated with drugs (Methods in S1 Text). Viral load, Hoechst fluorescence, and IP-10 measurements were measured and normalized to vehicle control samples for each assay. Each group was compared to vehicle controls using the Brown-Forsythe and Welch ANOVA tests and corrected for multiple comparisons using a Dunnett T3 test.
(§2) To measure the impact of selected drugs on HCoV-OC43 infection, 96-well plates seeded with Human Umbilical Vein Endothelial Cells (HUVEC) were infected with HCoV-OC43 and treated with drugs. Uninfected and vehicle treated cells (0.1% DMSO) are included as controls. HUVEC plates were pre-dosed with drugs overnight at 34°C at indicated concentrations (100 µl/well). The following day, HCoV-OC43 was added to the wells (100 µl/well) at an MOI of 0.2 and incubated for 3 h at 34°C. […] After five PBS washes, Hoechst fluorescence was read at 355 nm excitation and 450 nm emission using a Synergy H1 Spectrophotometer. Subsequently, viral load was analyzed using the ImmPACT DAB Peroxidase (HRP) Substrate kit (Vector Labs) according to the manufacturer’s instructions, and DAB absorbance was read at 465 nm.

HCoV-OC43 = HCoV-OC43 infection of HUVECs, viral load; format: cell-based, human coronavirus OC43; conditions: HUVEC cells, 1 or 5 μM
Experimental: as §1, §2

SARS-CoV-2 [5] = assay: Preliminary in vivo study in SARS-CoV-2-infected hamsters
SARS-CoV-2 [6] = assay: Preliminary in vivo study in SARS-CoV-2-infected mice

SMILES | Mortality, N (%) (COVID-19 patients) | Mortality rate, treated patients (COVID-19 patients) | No. died/No. treated, treated patients (COVID-19 patients) | reduction in the RR (COVID-19 patients) | Solubility [1] | Max Toxicity (%) (Vero E6 (Vero6) cells) | Max Inhibition (%) (SARS-CoV-2 GFP) | Protein binding (%) [2] | Active metabolites [3] | Bioavailability (%) [3] | Elimination half-life [3] | Metabolism [3] | CC50 (in vitro) | Clearance [3] | other results
CC(C)c1c(C(=O)Nc2ccccc2)c(-c2ccccc2)c(-c2ccc(F)cc2)n1CC[C@@H](O)C[C@@H](O)CC(=O)O [atorvastatin] | 431 (16.1) % | 16.1% | 431/2676 | 14% | – | – | – | – | – | – | – | – | – | – | IC50 (SARS-CoV-2 (WA-1 strain)): 1.9 µM; Max Inhibition (%) (SARS-CoV-2 (WA-1 strain)): 24.4%
CC(C)n1c(/C=C/C(O)CC(O)CC(=O)O)c(-c2ccc(F)cc2)c2ccccc21 (centres unmarked) [fluvastatin] | – | – | – | – | Lipophilic | 80.4% | 19% | >99% | No | 19 to 29% | 0.5 to 2.3 h | CYP2C9 | 10.6 µM | – | –
CC[C@H](C)C(=O)O[C@H]1C[C@@H](C)C=C2C=C[C@H](C)[C@H](CC[C@@H]3C[C@@H](O)CC(=O)O3)[C@H]21 [lovastatin] | 15 (21.4) % | 21.4% | 15/70 | – | Lipophilic | 74.2% | 55.8% | >95% | Yes | – | 2.9 h | CYP3A4 | 16.9 µM | Hepatic | IC50 (SARS-CoV-2 GFP): 7.8 µM
O=C(O)C[C@H](O)C[C@H](O)/C=C/c1c(C2CC2)nc2ccccc2c1-c1ccc(F)cc1 [pitavastatin] | 4 (30.8) % | – | – | – | Lipophilic | 83.6% | – | 99% | Yes | 51% | 12 h | Non-CYP450 Limited CYP2C9/19 | 0.3 µM | Hepatic | IC50 (SARS-CoV-2 (WA-1 strain)): 1.6 µM; Max Inhibition (%) (SARS-CoV-2 (WA-1 strain)): 19.1%
CC[C@H](C)C(=O)O[C@H]1C[C@H](O)C=C2C=C[C@H](C)[C@H](CC[C@@H](O)C[C@@H](O)CC(=O)O)[C@H]21 [pravastatin] | 71 (18.5) % | 18.5% | 71/383 | – | Hydrophilic | 4% | 21.7% | 43 to 55% | No | 18% | 1.3 to 2.8 h | Non-CYP450 | – | Hepatic and renal | Relative risk of death (95% CI) (COVID-19 patients; treated vs propensity score matched untreated controls, iteration with the least significant result): 0.78 (0.61–1.00)
CC(C)c1nc(N(C)S(C)(=O)=O)nc(-c2ccc(F)cc2)c1/C=C/[C@@H](O)C[C@@H](O)CC(=O)O [rosuvastatin] | 53 (13.1) % | 13.1% | 53/404 | 41% | Hydrophilic | – | – | – | No | – | – | Non-CYP450 Limited CYP2C9/8 | – | Hepatic and renal | effects on SARS-CoV-2 replication (SARS-CoV-2 [4]): inhibitory effects
CCC(C)(C)C(=O)O[C@H]1C[C@@H](C)C=C2C=C[C@H](C)[C@H](CC[C@@H](O)C[C@@H](O)CC(=O)O)[C@H]21 [simvastatin hydroxy acid] | – | – | – | – | – | – | – | – | – | – | – | – | – | – | inhibition of SARS-CoV-2 infection relative to pro-drug form of simvastatin (SARS-CoV-2 GFP): much weaker inhibition
CCC(C)(C)C(=O)O[C@H]1C[C@@H](C)C=C2C=C[C@H](C)[C@H](CC[C@@H]3C[C@@H](O)CC(=O)O3)[C@H]21 [simvastatin] | 153 (19.5) % | 19.5% | 153/784 | 17% | – | 78.5% | 93.7% | 94 to 98% | – | – | 2 to 3 h | – | 6.5 µM | Hepatic | cytokine (IP-10) production (IP-10): potently reduced; OC43 infection (viral load) (HCoV-OC43): inhibits; effect on infection and host response (SARS-CoV-2 [5]; SARS-CoV-2-infected hamsters, very preliminary): no effect; plasma levels (SARS-CoV-2 [5]; hamsters, compared with in vitro IC50): greater than the IC50; effect on infection and host response (SARS-CoV-2 [6]; SARS-CoV-2-infected mice, very preliminary): no effect; plasma levels (SARS-CoV-2 [6]; mice, compared with in vitro IC50): greater than the IC50; IC50 (SARS-CoV-2 GFP): 0.8 µM
